Entries after “also recorded” stand apart in the source; their conditions may differ.
System: GSK-3β
Experiment: Immunoblot of GSK-3β phosphorylation and β-catenin in Wt hippocampal slices
Assay type: cell-based, mice
Description: Immunoblotting. The hippocampus and cortex of treated or control transgenic mice were dissected on ice and immediately processed has detailed previously (Toledo & Inestrosa 2010). Briefly, hippocampal and cortical tissues were homogenized in RIPA buffer (10 mM Tris-Cl, pH 7.4, EDTA 5 mM, 1% NP-40, 1% sodium deoxycholate, and 1% SDS) supplemented with a protease inhibitor mixture and phosphatase inhibitors (25 mMNaF, […] and 30 μM Na4P207) using a Potter homogenizator and then passed sequentially through different caliber syringes. Protein samples were centrifuged at 14000 rpm at 4° C. twice for 15 min. Protein concentrations were determined using the BCA Protein Assay Kit (Pierce). Samples were resolved by SDS-PAGE followed by immunoblotting on PVDF membranes. Western blot assays were carried out as previously described (Inestrosa et al 2013; Toledo & Inestrosa 2010).
Slice Preparation and Electrophysiology. Hippocampal slices were prepared according to standard procedures previously described (Cerpa et al 2010; VarelaNallar et al 2010). Briefly, transverse slices (350 μm) from the dorsal hippocampus were cut under cold artificial cerebrospinal fluid (ACSF, in mM: 124 NaCl, […], 10 D-glucose, 2.69 KCl, 1.25 KH2PO4 2.5 CaCl2, 1.3 MgSO4, y 2.60 NaHPO4) using a V ibratome (Leica VT 1000s, Germany) and incubated in ACSF for 1 h at room temperature. In all experiments, 10 μM picrotoxin (PTX) was added to suppress inhibitory GABAA transmission (Cuitino et al 2010). Slices were transferred to an experimental chamber (2 ml), superfused (3 ml/min, at 20-22° C.) with gassed ACSF and visualized by trans-illumination with a binocular microscope (MSZ-10, Nikon, Melville, N.Y.). […] The paired pulse facilitation index was calculated by ((R2−R1)/R1), where R1 and R2 were the peak amplitudes of the first and second fEPSP respectively. […] Evoked postsynaptic responses were analyzed off-line, using an analysis software (pClampfit, Molecular Devices), which allowed visual detection of events, computing only those events that exceeded and arbitrary threshold.

[1] = Wt hippocampal slices, 10 μM ANDRO for 1 hr

C=C1CC[C@@H]2C(C)(CO)[C@H](O)CC[C@@]2(C)C1C/C=C1/C(=O)OC[C@H]1O (stereo in doubt) [ANDRO, 3-(2-(Decahydro-6-hydroxy-5-(hydroxymethyl)-5,8a-dimethyl-2-methylenenaphthyl)ethylidene)dihydro-4-hydroxyfuran-2(3H)-one]
levels of β-catenin (Wt hippocampal slices incubated with ANDRO): increase in the levels of β-catenin | active form of GSK-3β (Tyr-216 phosphorylation) [1]: decrease of Tyr-216 phosphorylation; also recorded: reduction of the active form | inactive form of GSK-3β (Ser-9 phosphorylation) [1]: increment of Ser-9 phosphorylation; also recorded: increase in the levels of the inactive form

From US20220409573A1, “Hippocampus Regeneration And Memory Recovery” (INNOBIOSCIENCE, LLC, priority 2021, published 2022)
